pIC50: −log10 of the molar value. Like-named read-outs stand apart in the source and are kept apart here.
How the values were obtained:
[1] = target: CXCR-4 transfected U87 cell line (U87.CXCR4) (Homo sapiens (Human), UniProt P61073); experiment: Intracellular CXCL-12-induced calcium mobilization assay (FLIPR); assay type: cell-based; settings: U87.CXCR4 cells, CXCL-12 25-50 ng/mL; read-out: IC50 CXCL-12 Ca2+ flux U87.CXCR4+
How it was run: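 U87.CXCR4 cells were seeded at 20,000 per well, cultured 12 hours, then loaded with 4 μM Fluo-2 AM for 45 min at 37° C. in HBSS with 20 mM HEPES and 0.2% BSA, pH 7.4. Calcium flux triggered by CXCL-12 (25-50 ng/mL) was tracked over time by FLIPR fluorescence at 37° C.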

[2] = target: Jurkat cells expressing CXCR4 (Homo sapiens (Human), UniProt P61073); experiment: Chemokine (CXCL12-AF647) binding inhibition assay; settings: CXCL12-AF647 25 ng/mL, read-out: IC50 CXCL-12 binding Jurkat
Jurkat cells expressing CXCR4, sequence (P61073 whole entry): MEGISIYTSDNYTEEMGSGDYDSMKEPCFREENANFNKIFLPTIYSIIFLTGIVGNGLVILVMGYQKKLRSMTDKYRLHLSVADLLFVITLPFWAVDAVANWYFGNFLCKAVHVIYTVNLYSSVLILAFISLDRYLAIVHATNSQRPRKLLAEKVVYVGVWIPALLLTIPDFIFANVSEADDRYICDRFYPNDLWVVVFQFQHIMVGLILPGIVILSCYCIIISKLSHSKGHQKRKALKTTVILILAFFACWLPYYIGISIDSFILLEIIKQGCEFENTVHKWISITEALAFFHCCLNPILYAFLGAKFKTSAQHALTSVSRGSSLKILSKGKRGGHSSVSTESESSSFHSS
How it was run: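 Cells in HBSS, 20 mM HEPES, 0.2% BSA, pH 7.4, preincubated 15 min at room temperature with compound, then 25 ng/mL CXCL12-AF647 for 30 min. After washing and paraformaldehyde fixation, bound ligand read by flow cytometry; percent inhibition calculated from MFI relative to unlabeled and ligand-only controls.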

in vitro = settings: human, Caco-2, pH 7.4
How it was run: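 Compounds at 10 μM in HBSS pH 7.4 (0.1–0.3% DMSO) were dosed on Caco-2 monolayers, apical-to-basolateral and basolateral-to-apical, for 90 min at 37 °C, in duplicate. Monolayer integrity was checked by TEER and lucifer yellow flux, read by fluorescence at 485/535 nm. Compound was quantified by LC-MS/MS and Papp calculated.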

[3] = Mouse brain uptake assay, 0-24 h, 4 time points; assay type: in vivo; settings: male, 3 mg/kg IV, 4 time points; for Kp / Kp uu: CD1, brain and plasma; for Kp / Kp uu / clearance / half-life: Mouse; for clearance / half-life: CD1, plasma; for half-life: read-out: t½ (converted)
Method: The study design (9 animals) consisted of administrating the drug (IV: 3 mg/kg (5 mL/kg) via tail vein injection) and collecting samples at terminal bleeding for plasma and brain at 0.083, 0.5 and 1 h. The blood collection was performed as follows: the animal was restrained manually and approximately 150 μL blood/time point was collected into a dipotassium EDTA tube via retro orbital puncture under anesthesia with isoflurane. The blood sample was put on ice and centrifuged to obtain a plasma sample (2000 g, 5 min under 4° C.) within 15 minutes. The brain collection was performed as follows: a mid-line incision was made in the animal's scalp and the skin was retracted. Using small bone cutters and rongeurs, the skull overlying the brain was removed. The brain was removed using a spatula and the brain rinsed with cold saline. The brain was placed in screw-top tubes, and the tubes were stored at −70° C. until analysis. The IV dosing solution was prepared in 50 mM citrate buffer (pH 4.0) at 0.6 mg/mL.
An aliquot of 30 μL sample was added to 150 μL MeCN containing 50 ng/mL IS (Dexamethasone). The mixture was vortexed for 5 min and centrifuged at 14,000 rpm for 5 min. An aliquot of 5 μL supernatant was injected for LC-MS/MS analysis.
An aliquot of 30 μL brain homogenate (brain:PBS=1:3, w/v) sample was added to 150 μL IS in ACN (Dexamethasone, 50 ng/mL). The mixture was vortexed for 5 min and centrifuged at 14,000 rpm for 5 min. An aliquot of 5 μL supernatant was injected for LC-MS/MS analysis.
The sample analysis was performed on LCMS/MS-003 (API4000, triple quadruple) under the following conditions: positive ion, ESI, MRM detection using dexamethasone as internal standard. HPLC conditions: mobile phase A: H2O (0.025% formic acid (FA) with 1 mM NH4OAc); mobile phase B: MeOH (0.025% FA with 1 mM NH4OAc) on Waters X-Bridge C18 (2.1×50 mm, 2.5 μm) column at 60° C.
A similar experiment was performed with 4 time points taken from 0-24 h.

[4] = Fraction of drug unbound to plasma proteins, mouse; assay type: in vitro ADME; settings: Mouse plasma proteins (Table 10); read-out: Fu (p) %
[5] = Fraction of drug unbound to brain proteins, mouse; assay type: in vitro ADME; settings: Mouse brain proteins (Table 10); read-out: Fu (b) %
[6] = CD1, Mouse brain, read-out: AUClast (b)
[7] = CD1, Mouse plasma, read-out: AUClast (p)

CXCR-4 transfected U87 cell line (U87.CXCR4), sequence (P61073 whole entry): as above

SMILES | pIC50 [1] | pIC50 [2] | Papp A→B at 90 min, 10 μM (in vitro) | Papp B→A at 90 min, 10 μM (in vitro) | efflux ratio at 90 min, 10 μM (in vitro) | AUC(0-t) [3, 6] | AUC(0-t) [3, 7] | Kp [3] | Kp uu [3] | clearance [3] | half-life [3] | fraction unbound [4] | fraction unbound [5]
Cc1c([C@@H]2CCC[C@H](c3ncccc3Cl)N2)nc2cccc(N3CCN(C)CC3)n12 (stereo in doubt) [Compound I-193] | 7.00 to 11.00 | 7.00 to 11.00 | 10 to 30 ×10⁻⁶ cm/s | 10 to 30 ×10⁻⁶ cm/s | 0.1 to 10 | 13700 ng·h/mL | 2130 ng·h/mL | 6.41 | 0.54 | 22 mL/min/kg | 6.42 h | 0.047 | 0.004
CN1CCN(c2cccc3nc([C@H]4CCC[C@@H](c5ncccc5Cl)N4C)c(Cl)n23)CC1 [Compound I-115] | 7.00 to 11.00 | 7.00 to 11.00 | 0.1 to 10 ×10⁻⁶ cm/s | 0.1 to 10 ×10⁻⁶ cm/s | 0.1 to 10 | 26900 ng·h/mL | 1400 ng·h/mL | 19.2 | 3.68 | 35.3 mL/min/kg | 3.96 h | 0.026 | 0.005
CCOCc1c([C@H]2CCC[C@@H](c3ncccc3Cl)N2C)nc2cccc(N3CCN(C)CC3)n12 [Compound I-117] | 7.00 to 11.00 | 7.00 to 11.00 | 10 to 30 ×10⁻⁶ cm/s | 10 to 30 ×10⁻⁶ cm/s | 0.1 to 10 | 32300 ng·h/mL | 1480 ng·h/mL | 21.8 | 3.35 | 33.5 mL/min/kg | 3.56 h | 0.039 | 0.006
COc1cccnc1[C@@H]1CCC[C@H](c2cn3c(N4CCNC5(CC5)C4)cccc3n2)N1 [Compound I-172] | ≤ 6.00 | ≤ 6.00 | 0.1 to 10 ×10⁻⁶ cm/s | > 30 ×10⁻⁶ cm/s | > 30 | – | – | – | – | – | – | – | –
COc1cccnc1[C@@H]1CCC[C@H](c2nc3cccc(N4CCN(C)CC4)n3c2Cl)N1 [Compound I-173] | ≤ 6.00 | 6.00 to 7.00 | 0.1 to 10 ×10⁻⁶ cm/s | 10 to 30 ×10⁻⁶ cm/s | 0.1 to 10 | – | – | – | – | – | – | – | –
COc1cccnc1[C@@H]1CCC[C@H](c2nc3cccc(N4CCNC5(CC5)C4)n3c2Cl)N1 [Compound I-175] | ≤ 6.00 | ≤ 6.00 | 0.1 to 10 ×10⁻⁶ cm/s | 10 to 30 ×10⁻⁶ cm/s | 0.1 to 10 | – | – | – | – | – | – | – | –
CN1CCN(c2cccc3nc([C@H]4CCC[C@@H](c5ncccc5C5CC5)N4)cn23)CC1 [Compound I-179] | 7.00 to 11.00 | 7.00 to 11.00 | 0.1 to 10 ×10⁻⁶ cm/s | 10 to 30 ×10⁻⁶ cm/s | 0.1 to 10 | – | – | – | – | – | – | – | –
CN1CCN(c2cccc3nc([C@H]4CCC[C@@H](c5ncccc5C5CC5)N4)c(Cl)n23)CC1 [Compound I-180] | 7.00 to 11.00 | 7.00 to 11.00 | 10 to 30 ×10⁻⁶ cm/s | 10 to 30 ×10⁻⁶ cm/s | 0.1 to 10 | – | – | – | – | – | – | – | –
CN1C2CCC1CN(c1cccc3nc([C@H]4CCC[C@@H](c5ncccc5Cl)N4)cn13)C2 [Compound I-181] | 7.00 to 11.00 | 7.00 to 11.00 | 0.1 to 10 ×10⁻⁶ cm/s | 10 to 30 ×10⁻⁶ cm/s | 0.1 to 10 | – | – | – | – | – | – | – | –
CN1CC2CCC(C1)N2c1cccc2nc([C@H]3CCC[C@@H](c4ncccc4Cl)N3)cn12 [Compound I-182] | ≤ 6.00 | 7.00 to 11.00 | 10 to 30 ×10⁻⁶ cm/s | 10 to 30 ×10⁻⁶ cm/s | 0.1 to 10 | – | – | – | – | – | – | – | –
Cc1cccnc1[C@@H]1CCC[C@H](c2cn3c(N4C5CCC4CN(C)C5)cccc3n2)N1 [Compound I-186] | 7.00 to 11.00 | 7.00 to 11.00 | 0.1 to 10 ×10⁻⁶ cm/s | 10 to 30 ×10⁻⁶ cm/s | 0.1 to 10 | – | – | – | – | – | – | – | –
Cc1cccnc1[C@@H]1CCC[C@H](c2cn3c(N4CCNC5(CC5)C4)cccc3n2)N1 [Compound I-190] | ≤ 6.00 | 6.00 to 7.00 | 0.1 to 10 ×10⁻⁶ cm/s | > 30 ×10⁻⁶ cm/s | 10 to 30 | – | – | – | – | – | – | – | –
COc1cccnc1[C@@H]1CCC[C@H](c2cn3c(N4CCN(C)CC4)cccc3n2)N1 [Compound I-191] | 6.00 to 7.00 | 7.00 to 11.00 | 0.1 to 10 ×10⁻⁶ cm/s | > 30 ×10⁻⁶ cm/s | 10 to 30 | – | – | – | – | – | – | – | –
Cc1cccnc1[C@H]1CCC[C@@H](c2nc3ccccn3c2-c2ccncc2)N1 [Compound I-207] | ≤ 6.00 | ≤ 6.00 | 10 to 30 ×10⁻⁶ cm/s | > 30 ×10⁻⁶ cm/s | 0.1 to 10 | – | – | – | – | – | – | – | –
Cc1cccnc1[C@@H]1CCC[C@H](c2nc3ccccn3c2-c2cccnc2)N1 [Compound I-208] | ≤ 6.00 | ≤ 6.00 | 10 to 30 ×10⁻⁶ cm/s | 10 to 30 ×10⁻⁶ cm/s | 0.1 to 10 | – | – | – | – | – | – | – | –
Cc1cccnc1[C@@H]1CCC[C@H](c2cn3c(N4CCN(C)C(=O)C4)cccc3n2)N1 [Compound I-210] | ≤ 6.00 | ≤ 6.00 | 0.1 to 10 ×10⁻⁶ cm/s | 10 to 30 ×10⁻⁶ cm/s | > 30 | – | – | – | – | – | – | – | –
